{
  "source": "patent US4225529A",
  "about": "“Compositions containing platinum” (Johnson, Matthey & Co., Limited, priority 1977, dated 1980)",
  "key": {"[1]": {"test": "stability in solution", "format": "physicochemical", "description": "cis-[PtI2 (n-C4 H9 NH2)2 ] (120 g, 0.20 mol) was slurried with a warm solution of silver nitrate (66 g, 0.38 mol) in water (200 ml). The mixture was stirred for 3 hours during which time the yellow suspension turned pale grey. The mixture was then treated with charcoal, stirred and filtered through a porosity 4 sinter. The residue was washed once with 30 ml of water and the washings were combined with the filtrate (total volume 300 ml).\nCis-[PtI2 (n-C3 H7 NH2)2 ] (127 g, 0.22 mol) was slurried with a warm (50° C.) solution of silver nitrate (73 g, 0.43 mol) in 130 mls of water. The mixture was stirred for 4 hours during which time the yellow suspension turned dark grey. The mixture was then treated with charcoal, stirred and filtered through a porosity 4 sinter. The residue was triturated with water (20 mls) and the filtrates combined to give a clear orange solution (total volume 150 mls).\nThe crude oxalto complex was recrystallised as follows. The product was added to a stirred, vigorously boiling aqueous solution of 0.1 M potassium oxalate (800 ml). The solution was boiled for 30 minutes to effect dissolution during which time the solution darkened owing to some platinum formation. The solution was then treated with charcoal, stirred, cooled to 80° C. and filtered through a porosity 4 sinter. White crystals formed on cooling the filtrate to 25° C. and after storage for 3 days at 5° C., the product was filtered off, washed with water and air dried.\nThe solution was concentrated to a volume of 30-40 mls, treated with charcoal and filtered through a porosity 4 sinter. A white solid formed when the solution was cool. This was filtered off on a porosity 3 sinter. More white solid was obtained when an equal volume of water was added to the ethanolic filtrate. The purified products were combined, washed with water, ethanol and dried in vacuo."}, "[2]": {"system": "S180 solid tumour", "test": "antitumour activity against S180 solid tumour in mice (T/C)", "format": "in vivo", "conditions": "S180, @ 10 mg/Kg, carrier water, intraperitoneal", "description": "(§1) Complexes according to the invention were tested for antitumour activity against L-1210 leukaemia, ADJ/PC6A tumour or S180 solid tumour in mice. In the results which follow, dosages are quoted in mg/Kg body weight and the evaluation of effectiveness (% T/C) against L1210 is calculated as the median survival time of treated mice divided by the median survival time of untreated (control) mice expressed as a percentage. Thus a % T/C of 100 indicates no activity and a % T/C of greater than or equal to 125 is considered to be indicative of significant antitumour activity.\n(§2) Against a solid tumour, the % T/C is a measure of tumour regression and is the percentage of tumour weight in treated mice to that in control mice. Against ADJ/PC6A and S180, several dose levels were given and ranged from lethal to non-tumour inhibitory, allowing the calculation of LD50 and ID90 (minimum dose to cause 90% tumour inhibition) in one experiment. The ratio LD50 /ID90 is the therapeutic index and is a measure of the selectivity of the compound as an anti-tumour agent. […]"}, "[3]": {"system": "ADJ/PC6A tumour", "test": "antitumour activity against ADJ/PC6A tumour in mice (ID90, LD50, therapeutic index)", "format": "in vivo", "conditions": "intraperitoneal single dose in arachis oil", "description": "Complexes according to the invention were tested for antitumour activity against L-1210 leukaemia, ADJ/PC6A tumour or S180 solid tumour in mice. […] Thus a % T/C of 100 indicates no activity and a % T/C of greater than or equal to 125 is considered to be indicative of significant antitumour activity.\nAgainst a solid tumour, the % T/C is a measure of tumour regression and is the percentage of tumour weight in treated mice to that in control mice. Against ADJ/PC6A and S180, several dose levels were given and ranged from lethal to non-tumour inhibitory, allowing the calculation of LD50 and ID90 (minimum dose to cause 90% tumour inhibition) in one experiment. The ratio LD50 /ID90 is the therapeutic index and is a measure of the selectivity of the compound as an anti-tumour agent. All compounds were administered intraperitoneally as a single dose suspended in arachis oil."}, "[4]": {"system": "L-1210 leukaemia", "test": "antitumour activity against L1210 leukaemia in mice (% T/C)", "format": "in vivo", "conditions": "intraperitoneal, median survival treated/control", "description": "as §1, §2"}, "[5]": {"conditions": "aqueous solution, on standing (tendency to darken)"}},
  "data": [
    {"compound": "n-butylamine diaquo complex [Example 1]", "values": [
      {"measurement": "stability", "setting": "[1]; [5]", "result": "slow decomposition to platinum"}
    ]},
    {"compound": "CCN.CCN.O=C1[O][Pt][O]C1=O", "note": "[Bis-(ethylamine)oxalatoplatinum(II)]", "values": [
      {"measurement": "T/C (tumour weight in treated mice to that in control mice)", "setting": "[2]", "result": 21, "unit": "%"}
    ]},
    {"compound": "CCCCN.CCCCN.[Cl][Pt][Cl]", "note": "[Cis-bis-(n-butylamine)dichloroplatinum(II)]", "values": [
      {"measurement": "ID90 (minimum dose to cause 90% tumour inhibition)", "setting": "[3]", "result": "< 10", "unit": "mg/kg"},
      {"measurement": "LD50", "setting": "[3]", "result": 110, "unit": "mg/kg"},
      {"measurement": "TI (therapeutic index, ratio LD50/ID90)", "setting": "[3]", "result": "> 11"}
    ]},
    {"compound": "CCCN.CCCN.O=C(CCl)[O][Pt][O]C(=O)CCl", "note": "[Cis-bis(chloroacetato) bis(n-propylamine)platinum II]", "values": [
      {"measurement": "% T/C", "setting": "[4]; L1210, daily dose for 9 days @ 6 mg/Kg", "result": 225, "unit": "%"},
      {"measurement": "% T/C", "setting": "[4]; L1210, single dose @ 12 mg/Kg", "result": 167, "unit": "%"},
      {"measurement": "% T/C", "setting": "[4]; L1210, single dose @ 24 mg/Kg", "result": 167, "unit": "%"}
    ]},
    {"compound": "n-propylamine diaquo complex [Example 2]", "values": [
      {"measurement": "stability", "setting": "[1]; [5]", "result": "slow decomposition to platinum"}
    ]},
    {"compound": "CCCCCN.CCCCCN.O=C1[O][Pt][O]C1=O", "note": "[Example 12, Oxalatobis(n-pentylamine)platinum(II)]", "values": [
      {"measurement": "stability", "setting": "[1]; recrystallisation from hot ethanol", "result": "without apparent decomposition"}
    ]},
    {"compound": "CCCCN.CCCCN.O=C1[O][Pt][O]C1=O", "note": "[Example 8, Bis (n-butylamine)oxalatoplatinum(II)]", "values": [
      {"measurement": "stability", "setting": "[1]; boiling 0.1 M potassium oxalate", "result": "instability"}
    ]},
    {"compound": "CCCCN.CCCCN.O=C(CCl)[O][Pt][O]C(=O)CCl", "note": "[Cis-bis (n-butylamine) bis(chloroacetato) platinum (II)]", "values": [
      {"measurement": "% T/C", "setting": "[4]; L1210, daily dose for 9 days @ 32 mg/kg", "result": 136, "unit": "%"},
      {"measurement": "% T/C", "setting": "[4]; L1210, single dose @ 256 mg/Kg", "result": 107, "unit": "%"}
    ]},
    {"compound": "CCCN.CCCN.[Cl][Pt][Cl]", "note": "[Cis-bis(n-propylamine)dichloroplatinum(II)]", "values": [
      {"measurement": "% T/C", "setting": "[4]; L1210, daily dose for 9 days @ 4 mg/kg", "result": 157, "unit": "%"},
      {"measurement": "% T/C", "setting": "[4]; L1210, single dose @ 8 mg/Kg", "result": 157, "unit": "%"}
    ]},
    {"compound": "CCCN.CCCN.O=C1[O][Pt][O]C1=O", "note": "[Bis-(n-propylamino)oxalatoplatinum(II), Oxalatobis(n-propylamine)platinum(II)]", "values": [
      {"measurement": "% T/C", "setting": "[4]; L1210, daily dose for 9 days @ 15 mg/Kg", "result": 143, "unit": "%"},
      {"measurement": "% T/C", "setting": "[4]; L1210, daily dose for 9 days @ 30 mg/Kg", "result": 143, "unit": "%"},
      {"measurement": "% T/C", "setting": "[4]; L1210, single dose @ 59 mg/Kg", "result": 129, "unit": "%"}
    ]},
    {"compound": "CCCCCN.CCCCCN.[Cl][Pt][Cl]", "note": "[cis-dichlorobis(1-aminopentane)platinum(II)]", "values": [
      {"measurement": "ID90 (minimum dose to cause 90% tumour inhibition)", "setting": "[3]", "result": 37, "unit": "mg/kg"},
      {"measurement": "LD50", "setting": "[3]", "result": 92, "unit": "mg/kg"},
      {"measurement": "TI (therapeutic index, ratio LD50/ID90)", "setting": "[3]", "result": 2.5}
    ]}
  ]
}
